What all share (type): biochemical
The target of assay [1] is recombinant human MMP-12 catalytic domain (Homo sapiens (Human), UniProt P39900). Description: MMP-12 inhibitory assay, fluorogenic substrate cleavage. The method, then: (§1) The inhibitory effect of compounds on the rate of cleaving fluorogenic MMP substrate (Enzo, BML-P128) by recombinant human MMP-12 catalytic domain (Enzo, BML-SE138) was carried out by methods known in the art. Briefly, to each well of a 96-well black opaque plate, all the reagents were sequentially added by pipetting, and the final reaction contained 4 nM of recombinant human MMP-12 catalytic domain, 4 μM of fluorogenic MMP substrate, and various concentrations (0.057 nM to 1,000 nM) of tested compound dilutions in HEPES buffer (pH 7.5) containing 10 mM of CaCl2, 0.01% Brij® 35 (polyoxyethylene (23) lauryl ether), and 0.1 mg/ml of BSA.
(§2) The enzyme and compounds were pre-incubated on a shaker to mix in wells. After an hour of mixing, fluorogenic substrate was added to each well. Reaction without enzyme was used as a blank control in the plate. The plate was then fed into a plate reader to measure fluorescence intensity at Excitation/Emission wavelengths of 340 nm/440 nm every 10 mins for at least 1 hour at 37° C. The IC50 of each compound in MMP-12 inhibition was determined by using a readout obtained at time point 30 minutes.

The target in the next assay is recombinant human MMP-1 (Homo sapiens (Human), UniProt P03956). Description: MMP selectivity assay, MMP-1. As to conditions: Table 2 selectivity profile; read-out: IC50, Target: MMP 1. The method, then: as §1, §2
(§3) The MMP selectivity assay was performed by using other recombinant human MMPs, including MMP-1, MMP-2, MMP-3, MMP-7, MMP-8, MMP-9, MMP-10, MMP-12, MMP-13, and MMP-14. The IC50 of the compounds for the other recombinant human MMPs was determined as described above in Example 1, and are shown in Table 2. The IC50 values are reported as follows: A=less than 1 nM, B=1 nM to 10 nM, C=10 nM to 100 nM, D=greater than 100 nM.

In another assay the target is recombinant human MMP-2 (Homo sapiens (Human), UniProt P08253). Put plainly: MMP selectivity assay, MMP-2. As to conditions: Table 2 selectivity profile; read-out: IC50, Target: MMP 2. The method, then: as §1, §2, §3
The target of a further assay is recombinant human MMP-3 (Homo sapiens (Human), UniProt P08254). Description: MMP selectivity assay, MMP-3. As to conditions: Table 2 selectivity profile; read-out: IC50, Target: MMP 3. The method, then:
as §1, §2, §3

The next assay deals with recombinant human MMP-7 (Homo sapiens (Human), UniProt P09237). Description: MMP selectivity assay, MMP-7. As to conditions: Table 2 selectivity profile; read-out: IC50, Target: MMP 7. As for the experimental part:
as §1, §2, §3

The target in the next assay is recombinant human MMP-8 (Homo sapiens (Human), UniProt P22894). Put plainly: MMP selectivity assay, MMP-8. To be noted: Table 2 selectivity profile; read-out: IC50, Target: MMP 8. As for the experimental part:
as §1, §2, §3

Another assay addresses recombinant human MMP-9 (Homo sapiens (Human), UniProt P14780). Description: MMP selectivity assay, MMP-9. As to conditions: Table 2 selectivity profile; read-out: IC50, Target: MMP 9. As for the experimental part:
as §1, §2, §3

In another assay the target is recombinant human MMP-10 (Homo sapiens (Human), UniProt P09238). Put plainly: MMP selectivity assay, MMP-10. To be noted: Table 2 selectivity profile; read-out: IC50, Target: MMP 10. The method, then:
as §1, §2, §3

The target in a further assay is recombinant human MMP-13 (Homo sapiens (Human), UniProt P45452). Description: MMP selectivity assay, MMP-13. As to conditions: Table 2 selectivity profile; read-out: IC50, Target: MMP 13. As for the experimental part: as §1, §2, §3
The next assay deals with recombinant human MMP-14 (Homo sapiens (Human), UniProt P50281). Put plainly: MMP selectivity assay, MMP-14. As to conditions: Table 2 selectivity profile; read-out: IC50, Target: MMP 14. The method, then:
as §1, §2, §3

The mark [2] stands for this setting: Table 1, readout at time point 30 minutes, read-out: MMP-12 IC50.
[3] abbreviates: Table 2 selectivity profile, read-out: IC50, Target: MMP 12.

The source of these data is US11673884B2, “Matrix metalloproteinase (MMP) inhibitors and methods of use thereof” (Foresee Pharmaceuticals Co., Ltd., priority 2019, dated 2023).

pIC50: −log10 of the molar value. Where two headings read alike, the source gives them in different places. A value given as a limit tells only on which side of the number the result lay.

Chain of recombinant human MMP-2 (P08253 110-660): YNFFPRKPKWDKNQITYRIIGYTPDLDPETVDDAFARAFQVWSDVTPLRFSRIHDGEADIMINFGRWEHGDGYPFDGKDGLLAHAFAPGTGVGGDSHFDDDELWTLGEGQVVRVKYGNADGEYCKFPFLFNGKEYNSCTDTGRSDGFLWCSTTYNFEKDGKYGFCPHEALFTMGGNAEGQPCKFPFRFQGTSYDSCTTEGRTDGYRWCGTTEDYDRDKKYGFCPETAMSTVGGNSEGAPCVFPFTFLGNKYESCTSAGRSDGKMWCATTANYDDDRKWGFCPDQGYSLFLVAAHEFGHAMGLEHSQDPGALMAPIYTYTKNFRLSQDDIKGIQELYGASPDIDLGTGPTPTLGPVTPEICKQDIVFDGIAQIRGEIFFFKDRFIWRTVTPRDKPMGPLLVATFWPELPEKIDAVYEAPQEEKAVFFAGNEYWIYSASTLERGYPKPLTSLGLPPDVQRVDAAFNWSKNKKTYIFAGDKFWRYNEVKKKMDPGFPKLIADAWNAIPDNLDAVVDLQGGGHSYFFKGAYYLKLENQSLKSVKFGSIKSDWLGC
Chain of recombinant human MMP-3 (P08254 100-477): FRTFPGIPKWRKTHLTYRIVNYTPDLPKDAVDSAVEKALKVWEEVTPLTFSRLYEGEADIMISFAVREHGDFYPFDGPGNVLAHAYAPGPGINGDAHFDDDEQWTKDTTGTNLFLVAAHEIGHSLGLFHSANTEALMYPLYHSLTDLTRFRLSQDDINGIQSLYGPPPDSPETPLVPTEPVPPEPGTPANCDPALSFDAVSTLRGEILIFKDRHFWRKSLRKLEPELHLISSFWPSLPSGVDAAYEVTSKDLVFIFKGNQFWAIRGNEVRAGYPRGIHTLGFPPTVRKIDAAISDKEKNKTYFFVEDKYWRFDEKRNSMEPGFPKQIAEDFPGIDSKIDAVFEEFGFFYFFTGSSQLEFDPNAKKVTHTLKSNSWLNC
Chain of recombinant human MMP-8 (P22894 101-467): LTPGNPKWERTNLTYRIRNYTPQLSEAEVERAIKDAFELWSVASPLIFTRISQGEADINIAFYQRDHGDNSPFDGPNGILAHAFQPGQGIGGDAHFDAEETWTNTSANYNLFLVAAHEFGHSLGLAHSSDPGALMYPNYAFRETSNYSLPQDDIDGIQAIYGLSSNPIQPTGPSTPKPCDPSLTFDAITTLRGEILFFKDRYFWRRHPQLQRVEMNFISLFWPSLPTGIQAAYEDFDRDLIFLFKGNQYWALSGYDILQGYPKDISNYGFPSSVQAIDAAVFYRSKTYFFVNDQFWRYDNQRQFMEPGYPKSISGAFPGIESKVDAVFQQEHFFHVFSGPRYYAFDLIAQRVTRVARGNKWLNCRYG
Chain of recombinant human MMP-7 (P09237 95-267): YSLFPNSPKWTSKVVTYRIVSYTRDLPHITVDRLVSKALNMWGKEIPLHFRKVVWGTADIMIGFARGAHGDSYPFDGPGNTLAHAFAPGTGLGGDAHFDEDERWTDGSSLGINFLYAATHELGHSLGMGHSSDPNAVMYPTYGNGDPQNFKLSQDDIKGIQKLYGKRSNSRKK
Chain of recombinant human MMP-10 (P09238 99-476): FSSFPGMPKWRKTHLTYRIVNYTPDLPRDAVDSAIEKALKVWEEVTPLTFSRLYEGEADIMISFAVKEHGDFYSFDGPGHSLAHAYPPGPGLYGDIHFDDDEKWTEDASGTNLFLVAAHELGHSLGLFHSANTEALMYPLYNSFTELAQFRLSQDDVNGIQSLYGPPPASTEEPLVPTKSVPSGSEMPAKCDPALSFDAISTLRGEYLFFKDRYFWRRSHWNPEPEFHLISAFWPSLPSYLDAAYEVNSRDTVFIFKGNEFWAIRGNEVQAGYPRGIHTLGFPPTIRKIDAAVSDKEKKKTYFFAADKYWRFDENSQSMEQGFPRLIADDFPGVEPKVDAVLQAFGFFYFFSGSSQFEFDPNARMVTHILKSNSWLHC
Chain of recombinant human MMP-1 (P03956 100-469): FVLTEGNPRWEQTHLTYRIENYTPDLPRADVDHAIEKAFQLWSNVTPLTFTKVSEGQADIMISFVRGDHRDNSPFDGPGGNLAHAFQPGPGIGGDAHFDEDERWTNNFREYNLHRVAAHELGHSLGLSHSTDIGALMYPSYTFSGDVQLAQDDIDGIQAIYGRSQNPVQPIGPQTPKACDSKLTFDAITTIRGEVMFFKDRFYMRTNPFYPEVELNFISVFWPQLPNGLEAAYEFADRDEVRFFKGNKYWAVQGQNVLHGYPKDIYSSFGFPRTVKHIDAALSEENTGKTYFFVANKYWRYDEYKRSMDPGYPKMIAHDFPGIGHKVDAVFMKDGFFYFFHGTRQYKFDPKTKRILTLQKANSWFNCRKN
Chain of recombinant human MMP-9 (P14780 94-707): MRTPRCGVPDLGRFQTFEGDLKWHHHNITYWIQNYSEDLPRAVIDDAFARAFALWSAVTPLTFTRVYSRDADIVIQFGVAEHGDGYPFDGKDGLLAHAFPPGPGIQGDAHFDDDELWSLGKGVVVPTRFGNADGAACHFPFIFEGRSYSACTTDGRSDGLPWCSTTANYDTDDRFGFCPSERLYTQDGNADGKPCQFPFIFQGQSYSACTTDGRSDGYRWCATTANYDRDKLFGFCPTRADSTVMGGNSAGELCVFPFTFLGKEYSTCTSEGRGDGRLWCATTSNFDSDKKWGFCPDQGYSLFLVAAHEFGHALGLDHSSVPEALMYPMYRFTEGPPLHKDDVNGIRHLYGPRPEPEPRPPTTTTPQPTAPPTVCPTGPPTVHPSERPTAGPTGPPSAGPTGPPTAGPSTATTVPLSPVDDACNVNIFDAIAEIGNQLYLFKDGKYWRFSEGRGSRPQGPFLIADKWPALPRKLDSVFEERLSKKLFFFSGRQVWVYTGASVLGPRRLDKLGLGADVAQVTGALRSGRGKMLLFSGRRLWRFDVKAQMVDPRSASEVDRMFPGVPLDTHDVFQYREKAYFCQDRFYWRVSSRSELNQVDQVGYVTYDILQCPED
Chain of recombinant human MMP-12 catalytic domain (P39900 106-268): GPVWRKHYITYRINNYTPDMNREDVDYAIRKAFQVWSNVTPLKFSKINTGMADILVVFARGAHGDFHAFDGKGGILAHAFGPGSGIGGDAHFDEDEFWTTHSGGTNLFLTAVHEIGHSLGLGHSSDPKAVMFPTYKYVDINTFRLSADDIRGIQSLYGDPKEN

The pIC50 is the IC50 on a negative log10 scale, so that one unit is a factor of ten. `Cc1cc(C#Cc2ccc(Sc3ccoc3C3NC(=O)NC3=O)cc2)ccn1` (centres unmarked) [AC-1]: the negative-log IC50 (pIC50) in [1] (setting [2]) was 7.00 to 8.00; in assay [1] (setting [3]) it was 7.00 to 8.00; at recombinant human MMP-1, less than 7.00; on recombinant human MMP-2 it was less than 7.00; at recombinant human MMP-3, less than 7.00; on recombinant human MMP-7, less than 7.00. Further, the pIC50 on recombinant human MMP-8, at recombinant human MMP-9, on recombinant human MMP-10, on recombinant human MMP-13 and on recombinant human MMP-14 was less than 7.00 each time.
Turning to `Cc1cc(/C=C/c2ccc(Sc3ccoc3C3NC(=O)NC3=O)cc2)ccn1` (centres unmarked) [AC-2], the pIC50 in [1] (setting [2]) was more than 9.00; in assay [1] (setting [3]) it was more than 9.00; at recombinant human MMP-1 it was less than 7.00; on recombinant human MMP-2 it was 8.00 to 9.00; at recombinant human MMP-3, 7.00 to 8.00; on recombinant human MMP-7 it was less than 7.00. Further, the pIC50 is 7.00 to 8.00 on recombinant human MMP-8; 7.00 to 8.00 at recombinant human MMP-9; less than 7.00 at recombinant human MMP-10; 7.00 to 8.00 at recombinant human MMP-13; less than 7.00 on recombinant human MMP-14.
As to `Cc1cc(C#Cc2ccc(Sc3ccsc3C3NC(=O)NC3=O)cc2)ccn1` (centres unmarked) [AC-9], the pIC50 is more than 9.00 in assay [1] (setting [2]); more than 9.00 in assay [1] (setting [3]); less than 7.00 on recombinant human MMP-1; 7.00 to 8.00 on recombinant human MMP-2; less than 7.00 on recombinant human MMP-3; less than 7.00 on recombinant human MMP-7. The negative logarithm of the IC50 (pIC50) on recombinant human MMP-8 is 7.00 to 8.00; at recombinant human MMP-9 it was less than 7.00; at recombinant human MMP-10, less than 7.00; on recombinant human MMP-13, less than 7.00; at recombinant human MMP-14 it was less than 7.00.
As for `CCC1(c2cnccc2Sc2ccc(/C=C/c3ccnc(C)c3)cc2)NC(=O)NC1=O` (centres unmarked) [AC-8], the pIC50 in assay [1] (setting [2]) is more than 9.00.
`Cc1cc(C#Cc2ccc(Oc3ccncc3C3NC(=O)NC3=O)cc2)ccn1` (centres unmarked) [AC-7]: the pIC50 in [1] (setting [2]) was 8.00 to 9.00; in [1] (setting [3]), 8.00 to 9.00; on recombinant human MMP-1, less than 7.00; on recombinant human MMP-2 it was less than 7.00; at recombinant human MMP-3 it was less than 7.00; at recombinant human MMP-7, less than 7.00. The pIC50 on recombinant human MMP-8, on recombinant human MMP-9, at recombinant human MMP-10, at recombinant human MMP-13 and at recombinant human MMP-14 was less than 7.00 in each case.
`Cc1cc(/C=C/c2ccc(Sc3ccsc3C3NC(=O)NC3=O)cc2)ccn1` (centres unmarked) [AC-10]: the pIC50 is more than 9.00 in [1] (setting [2]); more than 9.00 in assay [1] (setting [3]); less than 7.00 at recombinant human MMP-1; 8.00 to 9.00 at recombinant human MMP-2; 7.00 to 8.00 at recombinant human MMP-3; less than 7.00 at recombinant human MMP-7. For the same compound, the pIC50 at recombinant human MMP-8 was 8.00 to 9.00; at recombinant human MMP-9 it was 7.00 to 8.00; at recombinant human MMP-10, less than 7.00; on recombinant human MMP-13, 8.00 to 9.00; on recombinant human MMP-14, less than 7.00.
Take `Cc1cc(/C=C/c2ccc(Sc3cnn(C)c3C3NC(=O)NC3=O)cc2)ccn1` (centres unmarked) [AC-12]: the pIC50 is more than 9.00 in assay [1] (setting [2]); more than 9.00 in assay [1] (setting [3]); less than 7.00 on recombinant human MMP-1; 8.00 to 9.00 at recombinant human MMP-2; less than 7.00 at recombinant human MMP-3; less than 7.00 on recombinant human MMP-7. The negative-log IC50 (pIC50) at recombinant human MMP-8 is 7.00 to 8.00; on recombinant human MMP-9, less than 7.00; at recombinant human MMP-10 it was less than 7.00; on recombinant human MMP-13 it was 7.00 to 8.00; on recombinant human MMP-14 it was less than 7.00.
As to `Cc1cc(/C=C/c2ccc(Sc3ccncc3C3NC(=O)NC3=O)cc2)ccn1` (centres unmarked) [AC-5], the negative logarithm of the IC50 (pIC50) in [1] (setting [2]) is more than 9.00; in assay [1] (setting [3]), more than 9.00; at recombinant human MMP-1, less than 7.00; on recombinant human MMP-2 it was 7.00 to 8.00; on recombinant human MMP-3 it was less than 7.00; on recombinant human MMP-7, less than 7.00. The negative logarithm of the IC50 (pIC50) on recombinant human MMP-8, on recombinant human MMP-9, at recombinant human MMP-10, on recombinant human MMP-13 and at recombinant human MMP-14 was less than 7.00 throughout.
Take `Cc1cc(C#Cc2ccc(Sc3ccncc3C3NC(=O)NC3=O)cc2)ccn1` (centres unmarked) [AC-4]: the pIC50 was 8.00 to 9.00 in [1] (setting [2]); 8.00 to 9.00 in assay [1] (setting [3]); less than 7.00 on recombinant human MMP-1; less than 7.00 at recombinant human MMP-2; less than 7.00 at recombinant human MMP-3; less than 7.00 at recombinant human MMP-7. The pIC50 at recombinant human MMP-8, on recombinant human MMP-9, at recombinant human MMP-10, at recombinant human MMP-13 and on recombinant human MMP-14 was less than 7.00 in each case.
With `CCC1(c2occc2Sc2ccc(/C=C/c3ccnc(C)c3)cc2)NC(=O)NC1=O` (centres unmarked) [AC-3], the pIC50 was more than 9.00 in assay [1] (setting [2]); more than 9.00 in [1] (setting [3]); less than 7.00 on recombinant human MMP-1; 8.00 to 9.00 on recombinant human MMP-2; 7.00 to 8.00 at recombinant human MMP-3; less than 7.00 at recombinant human MMP-7. Further, the pIC50 on recombinant human MMP-8 was 8.00 to 9.00; at recombinant human MMP-9, 7.00 to 8.00; at recombinant human MMP-10, 7.00 to 8.00; on recombinant human MMP-13 it was 7.00 to 8.00; at recombinant human MMP-14, less than 7.00.
In the case of `Cc1cc(C#Cc2ccc(Sc3cnn(C)c3C3NC(=O)NC3=O)cc2)ccn1` (centres unmarked) [AC-11], the pIC50 is more than 9.00 in assay [1] (setting [2]); more than 9.00 in [1] (setting [3]); less than 7.00 on recombinant human MMP-1; 7.00 to 8.00 on recombinant human MMP-2; less than 7.00 at recombinant human MMP-3; less than 7.00 at recombinant human MMP-7. In addition, the negative-log IC50 (pIC50) at recombinant human MMP-8 is 7.00 to 8.00; on recombinant human MMP-9, less than 7.00; at recombinant human MMP-10, less than 7.00; at recombinant human MMP-13 it was less than 7.00; at recombinant human MMP-14 it was less than 7.00.
`Cc1cc(/C=C/c2ccc(Oc3ccncc3C3NC(=O)NC3=O)cc2)ccn1` (centres unmarked) [AC-6]: the pIC50 in [1] (setting [2]) is more than 9.00; in assay [1] (setting [3]), more than 9.00; at recombinant human MMP-1 it was less than 7.00; on recombinant human MMP-2, 7.00 to 8.00; at recombinant human MMP-3, less than 7.00; at recombinant human MMP-7, less than 7.00. Further, the pIC50 at recombinant human MMP-8 was 7.00 to 8.00; on recombinant human MMP-9 it was less than 7.00; on recombinant human MMP-10, less than 7.00; at recombinant human MMP-13, less than 7.00; at recombinant human MMP-14, less than 7.00.
